Laboratory results: US6531453B1, “NKT cell activators containing α-glycosylceramides” (Kirin Beera Kabushiki Kaisha, priority 1997, dated 2003)

Assays:
[1] = test system: spleen cells of RAG-1KO/Vα14tg/Vβ8.2tg mice (NKT cells); assay: Stimulation of NKT cell proliferation, [3H]thymidine incorporation in spleen cells; assay type: cell-based, mouse; conditions: 2 days incubation
Description: Stimulation of NKT cell proliferation by compounds having an α-glycosylceramide structure was studied using spleen cells of RAG-1KO/Vα14tg/Vβ8.2tg mice shown in Pharmacological Test Example 1.
Spleen cells were prepared from the spleen of RAG-1KO/Vα14tg/Vβ8.2tg mice by conventional methods. These spleen cells were suspended at 2×10^6 cells/ml in an RPMI 1640 medium supplemented with 10% FCS, and 100 μl each of the suspension were plated into wells of 96-well round-bottomed plates. Ten different kinds of compounds having an α-glycosylceramide structure shown in FIG. 12 were added to the wells of the plates at a final concentration of 1, 10 or 100 ng/ml, and the plates were incubated for 2 days. Sixteen hours after the addition of [^3H] thymidine (0.5 μCi/well), the cells were harvested. The amount of [^3H] thymidine incorporated into the cells was measured by a liquid scintillation counter.

Vα24+ NKT cells = assay: Stimulation of Vα24+ NKT cell proliferation, autologous mixed leukocyte reaction with treated antigen-presenting cells; assay type: cell-based, human; conditions: antigen-presenting cells treated with 100 ng/ml, FIG. 9
Description: Peripheral blood mononuclear cells of a normal human were cultured for 4 days in an AIM medium supplemented with 10% FCS with the addition of GM-CSF (400 U/ml), IL-4 (200 U/ml) and KRN 7000 (100 ng/ml) to prepare antigen-presenting cells.
An autologous mixed leukocyte reaction (MLR) was performed using these antigen-presenting cells as stimulator cells and autologous peripheral blood mononuclear cells as responder cells. After incubation for 10 days, IL-2 (5 U/ml) was added, incubation was continued for another 4 days, and the cells were harvested. Next, CD4, CD8 double negative cells were recovered from these harvested cells and subjected to the phenotype analysis. The phenotypic analysis was expressed by fluorescence intensity of labeled antibodies against cells having various phenotypes.
The cells were cultured using IL-2 (5 U/ml) to stimulate the proliferation of Vα24^+ NKT cells, which were used as responder cells in the following autologous mixed leukocyte reaction. Autologous peripheral blood mononuclear cells were cultured for 4 days with the addition of GM-CSF +IL-4 and 100 ng/ml of KRN 7000, AGL-583 (β-galactosylceramide, β-GalCer) or 0.1% DMSO (vehicle) to prepare antigen-presenting cells. An autologous mixed leukocyte reaction was carried out using these antigen-presenting cells as stimulator cells. […]

[2] = test system: 4% DSS-induced mouse colitis (CDF1 mice); assay: Suppression of 4% DSS-induced mouse colitis; assay type: in vivo; conditions: KRN 7000 100 μg/kg i.p. days 1, 5, 9, IL-12 1 μg/mouse i.p. days 1, 3, 5, 7, 9
Description: Ten animals per group of CDF1 mice (6 weeks of age, females) (Japan SLC Inc.) were used for the following experiment. Day 0 was defined as the day when a 4% DSS solution (4% (w/v) dextran sodium sulfate (DSS) dissolved in water) was first provided as drinking water. The animals were divided into 3 groups, i.e., a group to which 100 μg/kg of KRN 7000 were intraperitoneally administered on days 1, 5, and 9, a group to which 1 μg/mouse of IL-12 was intraperitoneally administered on days 1, 3, 5, 7 and 9, and an untreated (control) group. Body weight was measured and survival or death of the animals were observed daily. Changes in body weight and survival rate are shown in FIG. 5A and 5B, respectively.

mice ((CBAxDBA/2)F1) = assay: Induction of abortion in (CBAxDBA/2)F1 mice; assay type: in vivo, mouse; conditions: same amount of IL-12, same manner
Description: C57BL/6 mice (Japan SLC) were used for the following experiment. The day when a vaginal plug was observed was defined as day 0. Pregnant mice were divided into 2 groups (6 mice per group), i.e., one group to which 150 μg/kg of KRN 7000 were intravenously administered on days 7, 8 and 9, and another to which PBS (phosphate-buffered saline) was administered in the same way. On day 12, the uterus was removed to observe the state of the embryo.
IL-12 is also known to activate NKT cells. When the same amount of IL-12 was administered to mice ((CBAxDBA/2)F1) in the same manner, the resulting abortion rate was 34%.

Molecule: CCCCCCCCCCCCCCCCCCCCCCCCCC(=O)N[C@@H](CO[C@H]1O[C@H](CO[C@H]2O[C@H](CO)[C@H](O)[C@H](O)[C@H]2O)[C@H](O)[C@H](O)[C@H]1O)[C@H](O)[C@H](O)CCCCCCCCCCCCCC [AGL586, O-α-D-galactopyranosyl-(1→6)-O-α-D-galactopyranosyl-(1→1)-(2S,3S,4R)-2-amino-N-hexacosanoyl-1,3,4-octa decanetriol]
- [3H] Thymidine incorporation (cpm) ([1]; 1 ng/ml, vehicle 2090): 5137 cpm
- [3H] Thymidine incorporation (cpm) ([1]; 10 ng/ml, vehicle 2056): 39750 cpm
- [3H] Thymidine incorporation (cpm) ([1]; 100 ng/ml, vehicle 2014): 102425 cpm

Molecule: CCCCCCCCCCCCCCC[C@@H](O)[C@H](CO[C@H]1OC[C@H](O)[C@H](O)[C@H]1O)NC(=O)CCCCCCCCCCCCC [AGL577, (2S,3R)-1-(β-L-arabinopyranosyloxy)-2-tetradecanoyl amino-3-octadecanol]
- [3H] Thymidine incorporation (cpm) ([1]; 1 ng/ml, vehicle 2090): 2083 cpm
- [3H] Thymidine incorporation (cpm) ([1]; 10 ng/ml, vehicle 2056): 7792 cpm
- [3H] Thymidine incorporation (cpm) ([1]; 100 ng/ml, vehicle 2014): 49701 cpm

Molecule: β-galactosylceramide [reference compound]
- effect of treated antigen presenting cells on Vα24+ NKT cell proliferation ([3H]thymidine uptake) (Vα24+ NKT cells): no effect

Molecule: CCCCCCCCCCCCCCC[C@@H](O)[C@H](CO[C@H]1O[C@H](CO)[C@@H](O)[C@H](O)[C@H]1O)NC(=O)CCCCCCCCCCCCC [AGL563, (2S,3R)-1-(α-D-glucopyranosyloxy)-2-tetradecanoyl amino-3-octadecanol]
- [3H] Thymidine incorporation (cpm) ([1]; 1 ng/ml, vehicle 2090): 2063 cpm
- [3H] Thymidine incorporation (cpm) ([1]; 10 ng/ml, vehicle 2056): 3773 cpm
- [3H] Thymidine incorporation (cpm) ([1]; 100 ng/ml, vehicle 2014): 13131 cpm

Molecule: CCCCCCCCCCCCCCC[C@@H](O)[C@H](CO[C@H]1O[C@H](CO)[C@H](O)[C@H](O)[C@H]1O)NC(=O)CCCCCCCCCCCCC [AGL517, (2S,3R)-1-(α-D-galactopyranosyloxy)-2-tetradecanoyl amino-3-octadecanol]
- [3H] Thymidine incorporation (cpm) ([1]; 1 ng/ml, vehicle 2090): 3176 cpm
- [3H] Thymidine incorporation (cpm) ([1]; 10 ng/ml, vehicle 2056): 15583 cpm
- [3H] Thymidine incorporation (cpm) ([1]; 100 ng/ml, vehicle 2014): 83169 cpm

Molecule: CCCCCCCCCCCCCCC[C@@H](O)[C@H](CO[C@H]1O[C@H](C)[C@H](O)[C@H](O)[C@H]1O)NC(=O)CCCCCCCCCCCCC [AGL571, (2S,3R)-1-(6′-deoxy-α-D-galactopyranosyloxy)-2-tetra decanoylamino-3-octadecanol]
- [3H] Thymidine incorporation (cpm) ([1]; 1 ng/ml, vehicle 2090): 3969 cpm
- [3H] Thymidine incorporation (cpm) ([1]; 10 ng/ml, vehicle 2056): 17848 cpm
- [3H] Thymidine incorporation (cpm) ([1]; 100 ng/ml, vehicle 2014): 118092 cpm

Molecule: CCCCCCCCCCCCCCCCCCCCCCCCCC(=O)N[C@@H](CO[C@H]1O[C@H](CO[C@H]2O[C@H](CO)[C@H](O)[C@H](O)[C@H]2O)[C@@H](O)[C@H](O)[C@H]1O)[C@H](O)[C@H](O)CCCCCCCCCCCCCC [AGL584, O-α-D-galactopyranosyl-(1→6)-O-α-D-glucopyranosyl-(1→1)-(2S,3S,4R)-2-amino-N-hexacosanoyl-1,3,4-octadecane triol]
- [3H] Thymidine incorporation (cpm) ([1]; 1 ng/ml, vehicle 2090): 29331 cpm
- [3H] Thymidine incorporation (cpm) ([1]; 10 ng/ml, vehicle 2056): 65084 cpm
- [3H] Thymidine incorporation (cpm) ([1]; 100 ng/ml, vehicle 2014): 96783 cpm

Molecule: CCCCCCCCCCCCCCCCCCCCCC[C@@H](O)C(=O)N[C@@H](CO[C@H]1O[C@H](CO)[C@H](O)[C@H](O[C@@H]2O[C@@H]([C@H](O)CO)[C@H](O)[C@H]2O)[C@H]1O)[C@H](O)[C@H](O)CCCCCCCCCCCCCC [719-7, O-β-D-galactofuranosyl-(1→3)-O-α-D-galactopyranosyl-(1→1)-(2S,3S,4R)-2-amino-N-[(R)-2-hydroxytetracosanoyl]-1,3,4-octadecanetriol]
- [3H] Thymidine incorporation (cpm) ([1]; 1 ng/ml, vehicle 2090): 5287 cpm
- [3H] Thymidine incorporation (cpm) ([1]; 10 ng/ml, vehicle 2056): 30179 cpm
- [3H] Thymidine incorporation (cpm) ([1]; 100 ng/ml, vehicle 2014): 60528 cpm

Molecule: CCCCCCCCCCCCCCCCCCCCCC[C@@H](O)C(=O)N[C@@H](CO[C@H]1O[C@H](CO)[C@H](O)[C@H](O[C@H]2O[C@H](CO)[C@H](O)[C@H](O)[C@H]2NC(C)=O)[C@H]1O[C@H]1O[C@H](CO)[C@@H](O)[C@H](O)[C@H]1O)[C@H](O)[C@H](O)CCCCCCCCCCCCCC [STL-8]
- [3H] Thymidine incorporation (cpm) ([1]; 1 ng/ml, vehicle 2090): 4761 cpm
- [3H] Thymidine incorporation (cpm) ([1]; 10 ng/ml, vehicle 2056): 26474 cpm
- [3H] Thymidine incorporation (cpm) ([1]; 100 ng/ml, vehicle 2014): 47141 cpm

Molecule: CCCCCCCCCCCCCCCCCCCCCC[C@@H](O)C(=O)N[C@@H](CO[C@H]1O[C@H](CO)[C@H](O)[C@H](O)[C@H]1O[C@H]1O[C@H](CO)[C@H](O)[C@H](O)[C@H]1O)[C@H](O)[C@H](O)CCCCCCCCCCCCCC [S1140B-9, O-α-D-galactopyranosyl-(1→2)-O-α-D-galactopyranosyl-(1→1)-(2S,3S,4R)-2-amino-N-[(R)-2-hydroxytetracosanoyl]-1,3,4-octadecanetriol]
- [3H] Thymidine incorporation (cpm) ([1]; 1 ng/ml, vehicle 2090): 3387 cpm
- [3H] Thymidine incorporation (cpm) ([1]; 10 ng/ml, vehicle 2056): 10265 cpm
- [3H] Thymidine incorporation (cpm) ([1]; 100 ng/ml, vehicle 2014): 49520 cpm

B1: IL-12: interleukin 12 (IL-12), known to activate NKT cells (protein, UniProt P29459 23-219; P29460 23-328, looked up)
Interleukin-12 subunit alpha: RNLPVATPDPGMFPCLHHSQNLLRAVSNMLQKARQTLEFYPCTSEEIDHEDITKDKTSTVEACLPLELTKNESCLNSRETSFITNGSCLASRKTSFMMALCLSSIYEDLKMYQVEFKTMNAKLLMDPKRQIFLDQNMLAVIDELMQALNFNSETVPQKSSLEEPDFYKTKIKLCILLHAFRIRAVTIDRVMSYLNAS
Interleukin-12 subunit beta: IWELKKDVYVVELDWYPDAPGEMVVLTCDTPEEDGITWTLDQSSEVLGSGKTLTIQVKEFGDAGQYTCHKGGEVLSHSLLLLHKKEDGIWSTDILKDQKEPKNKTFLRCEAKNYSGRFTCWWLTTISTDLTFSVKSSRGSSDPQGVTCGAATLSAERVRGDNKEYEYSVECQEDSACPAAEESLPIEVMVDAVHKLKYENYTSSFFIRDIIKPDPPKNLQLKPLKNSRQVEVSWEYPDTWSTPHSYFSLTFCVQVQGKSKREKKDRVFTDKTSATVICRKNASISVRAQDRYYSSSWSEWASVPCS
- time of weight loss as compared with the control group ([2]; FIG. 5A): at an extremely early period
- survival period as compared with the control group ([2]; FIG. 5B): significantly shorter
- abortion rate (mice ((CBAxDBA/2)F1)): 34%
